Results on four compounds are retold here after patent publication US8227616B2, “Cyanopyridine antibacterial agents and methods of use thereof” (Wisconsin Alumni Research Foundation, priority 2006, dated 2012).

In brackets after ≈: the same amount, converted by molar mass. A value given as a limit tells only on which side of the number the result lay.

Assay [1] has as its system S. aureus ATCC 10390. Description: MIC determination with authentic compounds resynthesized in solution. Type of assay: cell-based, Staphylococcus aureus. Particulars: Staphylococcus aureus, ATCC10390. How it is done: (§1) For estimated MIC determination, DMSO was added to the dried compound residue obtained from a single spot to afford ca. 100 μL of a 2 mM stock solution. Aliquots (5 μL) of these solutions were added to a 96-well plate, followed by 195 μL of diluted S. aureus 10390 (10^6 CFUs/mL) to yield ca. 50 μM final concentrations. The plates were swirled for 1 h to ensure compound dissolution, incubated for 12 h at 37° C., and the absorbance at 595 nm was recorded using a plate reader. […] Actual MIC values were determined for lead compounds resynthesized in solution using an analogous procedure with solutions of known concentration (see).
(§2) Dose response growth inhibition curves were determined for each active compound (resynthesized in solution) against S. aureus 10390 (SA) and methicillin-resistant S. aureus 33591 (MRSA). […] MIC assays were performed in quadruplicate.

Assay [2] concerns Methicillin-resistant S. aureus ATCC 33591 (MRSA). Described as above. The note with it: Staphylococcus aureus; Table 3; authentic sample, only trans isomers of chalcones; error reflects step size in the serial dilutions. The assay is classed as cell-based. The method, then:
as §1, §2

Assay [3] relates to S. aureus ATCC 10390. Description: Estimated MIC, solution-phase microdilution absorbance assay with crude macroarray spot stock solutions. Type of assay: cell-based, Staphylococcus aureus. The note with it: Staphylococcus aureus, ATCC10390, 12 h. How it is done: Spots from a new 69 member chalcone macroarray as well as the three heterocyclic macroarrays prepared earlier were punched out, cleaved, and eluted with acetonitrile. The resulting solutions were concentrated to a residue that was taken up in DMSO to form 2 mM stock solutions.
From the stock solutions, microdilution assays in a 96 well plate starting at 50 μM were performed in quadruplicate. Each well contained 5 μL of the stock solution as well as 195 μL of a S. aureus culture. The turbidity of each well was measured after incubating 12 hours using a standard plate reader. Active compounds can be further diluted and the assay repeated.
To acquire more quantitative antibacterial activity data about our compounds and verify our on-support assay results, we performed solution-phase absorbance assays that provided estimates of the minimum inhibitory concentration (MIC) of each macroarray member against S. aureus. Stock solutions (ca. 2 mM) were generated by cleaving and eluting 198 individual compounds from chalcone (3) and heterocyclic macroarrays (5, 7, and 8). […] The good overall purities of the crude macroarray compounds allowed for reasonable estimations of MICs.
as §1
Preparation of spot samples and controls. An aliquot of DMSO (ca. 100 μL depending on the loading of the parent hydroxyacetophenone) was added to the dried compound residue obtained after TFA cleavage and elution from a single spot. This afforded a 2.0 mM “spot stock” solution for each spot. A small aliquot of each “spot stock” solution was saved for subsequent LC-MS analysis.
For estimated MIC screens, 5.0 μL portions of the “spot stock” solutions were added to the appropriate wells in a sterile, polystyrene 96-well plate to yield ca. 50 μM solutions (dependent on the initial loading of hydroxyacetopheneone and compound purity). To the positive and negative control wells, 5.0 μL of DMSO were added (positive controls contained bacteria but no compound, while negative controls had neither compound nor bacteria). All estimated MIC assays were performed in quadruplicate. Note: the MIC value is defined as the lowest concentration where no bacterial growth occurs.
Representative estimated MIC assay procedure. This assay procedure is based in part on the method reported by Strøm et al.^xiii A 400 μL portion of overnight S. aureus 10390 culture was diluted with 100 mL of sterile LB broth to give ca. 10^6 CFUs per mL. Aliquots (195 μL) of this solution were added to all of the wells in a sterile 96-well plate (except for the negative control wells; 195 μL of sterile LB broth were added to these wells). The plates were placed on an orbital shaker table and gently swirled for 1 h to ensure compound dissolution, and then incubated (without shaking) for 12 h at 37° C. The absorbance at 595 nm was recorded using a plate reader.
The original “spot stock” solutions of these compounds were diluted with DMSO to give ca. 25 and 13 μM final concentrations and tested for inhibitory activities using the procedure described above.

Assay [4] concerns B. subtilis subsp. spizizenii ATCC 6633. The experiment in a line: MIC determination, species selectivity. The assay is classed as cell-based. The note with it: Bacillus subtilis, ATCC6633; authentic sample, only trans isomers of chalcones; error reflects step size. How it is done: (§3) Each compound from Table 3 was tested for inhibitory activity at 2.5, 5, 7.5, 10, 15, 20, 25, and 30 μM in the susceptible overlaid strains: B. subtilis ATCC 6633, S. epidermidis ATCC 12228, and K. pneumoniae ATCC 4352. MIC assays were run in quadruplicate as described above (with shaking).

For the next assay, the system named is K. pneumoniae ATCC 4352. The experiment in a line: MIC determination, species selectivity. The assay is classed as cell-based. Particulars: Klebsiella pneumoniae, ATCC4352; authentic sample, only trans isomers of chalcones; error reflects step size. How it is done: as §3
The test system of assay [5] is S. epidermidis ATCC 12228. The experiment in a line: MIC determination, species selectivity. Type of assay: cell-based. Particulars: Staphylococcus epidermidis, ATCC12228; authentic sample, only trans isomers of chalcones; error reflects step size. The method, then:
as §3

The next assay has as its system K. pneumoniae. Description: Agar overlay TTC assay, compound overlays. The assay is classed as cell-based, Klebsiella pneumoniae. Particulars: 30 nanomole aliquots of purified compound on filter paper.
The test system of assay [6] is S. aureus ATCC 10390. The experiment in a line: Kirby-Bauer disk diffusion assay on compound spots from cleaved macroarray. The assay is classed as cell-based, Staphylococcus aureus. Particulars: loadings 30 μg/spot, 18 h incubation. How it is done: While the heterocyclic libraries were being synthesized, the chalcone macroarrays were analyzed using various direct assay techniques such as the Kirby-Bauer disk diffusion assay (FIG. 2E). Bauer, A. W.; Kirby, […].; Turck, M. Technical Bulletin of the Registry of Medical Technologists 1966, 36, 49-52. For this assay, the macroarray members are punched out from the membrane, cleaved from the support with TFA vapor, neutralized with ammonia vapor, and then placed on an agar bed inoculated with S. aureus. After incubating overnight, different diameters of zones of inhibition are measured as a factor of potency as well as solubility in the medium. Ammonia vapor neutralization was key in the disk diffusion assay, otherwise residual TFA vapor created a false positive signature. However, in this method, macroarrays have to be made in triplicate one for a replicate and one for compound characterization. We first evaluated test chalcone macroarrays (3) in antibacterial assays against S. aureus. Because the macroarrays were prepared on cellulose filter paper, we had convenient access to the compounds in disk form for standard disk diffusion assays. Compound spots were punched out of the macroarrays, subjected to vapor phase cleavage with acid (TFA), and neutralized (NH3) to afford disks containing ca. 30 μg of adsorbed compound [8]. These disks were manually placed on lawns of S. aureus, and zones of inhibition were measured after an 18 h incubation period. […] However, this antibacterial assay format had drawbacks: (1) the entire sample of compound was consumed during the assay, and thus replicate arrays needed to be synthesized to confirm activity, and (2) manipulating large numbers of compound disks was relatively labor intensive. Compound spots were cleaved with TFA and neutralized with NH3 as described herein. […] Compound spots were placed onto the agar, the plate was incubated at 37° C. for 18 h, and the diameters of the zones of inhibition were measured. […] Compound spots were subjected to the TFA cleavage conditions described above. The spots were next subjected to NH3 vapor to neutralize any remaining TFA. […] Vials containing the spots (or intact macroarrays) were placed inside a small evaporating dish, and this was placed into the NH4OH solution. The Pyrex dish was covered, and NH3 vapor was allowed to slowly diffuse into the vials. After 1 h, the vials were removed from the NH3 chamber, and the spots were allowed to stand open in a fume hood for at least 15 min to vent prior to analysis in the following assays. This afforded dry, paper disks containing adsorbed compound. […] The plates were removed, and the diameters of the zones of inhibition were measured in mm using a ruler (see FIG. 1A).
(In general: Agar diffusion results depend on both activity and mobility in agar.)

Where [7] appears, read: Table 2, authentic sample synthesized according to standard techniques, read-out: observed MIC.
The mark [8] stands for this setting: Table 3, authentic sample, only trans isomers of chalcones, error reflects step size in the serial dilutions, read-out: S. aureus MIC.
Setting [9] is: Table 2, serial dilution of stock solutions obtained by SPOT-synthesis, read-out: estimated MIC range.
[10] abbreviates: Table 3, serial dilution of spot stock solutions of crude macroarray compounds, read-out: S. aureus Estimated MIC range.

Broadly, the MIC is the lowest concentration that inhibits growth of the organism. `O=C(O)c1cn(C2CC2)c2cc(N3CCNCC3)c(F)cc2c1=O` [Ciprofloxacin, ciprofloxacin, reference compound]: the values for the minimal inhibitory concentration (MIC) (in the assay on S. aureus ATCC 10390 [1] (setting [7]); in the assay with S. aureus ATCC 10390 [1] (setting [8]); in assay [2]) were 0.75 ± 0.12 µM (≈ 0.249 µg/mL), 0.6 ± 0.1 µM (≈ 0.199 µg/mL) and 0.9 ± 0.1 µM (≈ 0.298 µg/mL), respectively.

Turning to `O=C(/C=C/c1ccc(Cl)cc1Cl)c1ccc(O)cc1` [Compound 4At, 2,4-dichloro-4′-hydroxychalcone], the MIC is 25 to 50 µM (≈ 7.33 to 14.7 µg/mL) in the assay with S. aureus ATCC 10390 [3] (setting [9]); 25 to 50 µM (≈ 7.33 to 14.7 µg/mL) with S. aureus ATCC 10390 [3] (setting [10]); 18.8 ± 1.2 µM (≈ 5.51 µg/mL) in the assay on S. aureus ATCC 10390 [1] (setting [7]); 21.2 ± 1.2 µM (≈ 6.21 µg/mL) in the assay on S. aureus ATCC 10390 [1] (setting [8]); 18.7 ± 1.2 µM (≈ 5.48 µg/mL) in assay [2]; 27.5 ± 2.5 µM (≈ 8.06 µg/mL) in assay [4]. Further, the results for the MIC (in the assay with K. pneumoniae ATCC 4352; in assay [5]) were more than 250 µM and 27.5 ± 2.5 µM (≈ 8.06 µg/mL), respectively. Further, the “susceptibility in agar overlay TTC assay” value in the assay with K. pneumoniae is “weakly susceptible”.

Compound `COc1cc(C(=O)/C=C/c2ccc(Br)cc2)ccc1O` [Compound 4Cf, 4-bromo-4′-hydroxy-3′-methoxy-chalcone] gave a Zones of inhibition with S. aureus ATCC 10390 [6] of less than 1 mm. Also, the MIC with S. aureus ATCC 10390 [3] (setting [9]) was more than 50 µM; with S. aureus ATCC 10390 [3] (setting [10]) it was more than 50 µM; with S. aureus ATCC 10390 [1] (setting [7]) it was more than 250 µM; with S. aureus ATCC 10390 [1] (setting [8]), more than 250 µM; in assay [2], more than 250 µM.

Take `Cc1nc(-c2ccc(O)cc2)cc(-c2cccc(Cl)c2Cl)c1C#N` [Compound 6Al, 4-(2,3-dichlorophenyl)-6-(4-hydroxyphenyl)-2-methyl-3-cyanopyridine]: the minimal inhibitory concentration (MIC) with S. aureus ATCC 10390 [3] (setting [9]) is 12.5 to 25 µM (≈ 4.44 to 8.88 µg/mL); in the assay on S. aureus ATCC 10390 [3] (setting [10]) it was 12.5 to 25 µM (≈ 4.44 to 8.88 µg/mL); with S. aureus ATCC 10390 [1] (setting [7]) it was 8.7 ± 1.3 µM (≈ 3.09 µg/mL); in the assay with S. aureus ATCC 10390 [1] (setting [8]) it was 10 ± 0.5 µM (≈ 3.55 µg/mL); in assay [2] it was 10 ± 0.5 µM (≈ 3.55 µg/mL); in assay [4] it was 6.3 ± 1.2 µM (≈ 2.24 µg/mL). The same compound showed a minimum inhibitory concentration (MIC) in assay [5] of 12.5 ± 2.5 µM (≈ 4.44 µg/mL).
